From US20220079966A1, “HYALURONAN SYNTHESIS INHIBITION FOR TREATING AUTOIMMUNE, INFLAMMATORY, FIBROTIC, OR PROLIFERATIVE DISEASES OR DISORDERS” (The Board of Trustees of the Leland Stanford Junior …, priority 2018, published 2022)

Assays:
[1] = cited from earlier work
blood leukocytes = experiment: Leukocyte 4-MU uptake in mice on oral 4-MU (flow cytometry, Pacific Blue channel); assay type: in vivo, C57Bl/6J mice; conditions: blood leukocyte subsets, days 0, 2, 7, 14
Source text: Next, the uptake of 4-MU by different leukocyte subsets was examined. To this end, mice were fed 4-MU and 4-MU signal was examined on blood leukocytes from representative animals at intervals of 0, 2, 7, and 14 days after the initiation of 4-MU treatment. […] Bold histograms depict signal in 4-MU treated mice, shaded histograms depict background Pacific Blue signal in untreated mice. Cell surface markers were stained to examine 4-MU uptake by multiple cell types, including CD4+ T-cells (CD3+CD4+), CD8+ T-cells (CD3+CD8+), B-cells (I-A/I-E+B220+) dendritic cells (DC; I-A/I-E+CD11c+), macrophages (Mc); I-A/I-E+CD11c−), neutrophils (Ly6G/C+CD14+) and monocytes (Ly6G/C-CD14+).
C57Bl/6J mice were treated with 4-MU and leukocytes from representative animals were isolated from the blood at baseline (before 4-MU treatment) and at intervals of 2, 7, and 14 days after the initiation of chow. […] To detect fluorescence emitted by 4-MU using flow cytometry on specific leukocyte subsets, peripheral blood red cells were lysed using Ammonium-Chloride-Potassium (ACK) buffer, and leukocytes were stained with the following fluorochrome-conjugated antibodies: BV650-CD3 (17-A2), BV785-CD4 (RM4-5), APC-CD11c (N418), PE-CD14 (Sa2-8), PE-Cy7-Ly-6G/C (RB6-8C5), PE-CyS. […] Samples were run on a BD™ LSRII flow cytometer (Beckon Dickinson) and data was analyzed using FlowJo software (TreeStar).

[2] = parameters: species or system mice; conditions: mouse, in vivo
Method: The 4-MU (Alfa Aesar) was pressed into mouse chow (TestDiet, St. Louis, Mo.) and irradiated before shipment, as previously described (Nagy N., et al., Circulation. 2010; 122(22):2313-2322). This chow formulation delivers 250 mg/mouse/day, yielding a serum drug concentration of 640.3±17.2 nmol/L in mice, as measured by HPLC-MS. 4-MUG (ChemImpex, Wood Dale, Ill.) was distributed in the drinking water at a concentration of 2 mg/ml, delivering 10 mg/mouse/day, yielding a serum drug concentration of 357.1±72.6 ng/mL in mice, as measured by LC-MS/MS. Mice were initiated on 4-MU and 4-MUG at five, eight or twelve weeks of age, unless otherwise noted, and were maintained on this diet until they were euthanized, unless otherwise noted. For analysis of Foxp3+ regulatory T-cell numbers in naïve mice, mice were treated daily with 0.5 mg of 4-MU or 1.0 mg 4-MUG in 200 μl 0.08% carboxymethylcellulose in saline by intra-peritoneal injection.
4-methylumbelliferone-13C4 (Toronto Research Chemicals, Ontario, Canada) was used as the internal standard (IS) for 4-MU and 7-hydroxycoumarin β-D-glucuronide (Toronto Research Chemicals, Ontario, Canada) as the IS for 4-MUG. The neat stock solutions of 4-MU and 4-MUG were mixed and diluted in 50% methanol to prepare the spiking solutions ranging from 1 ng/mL to 5000 ng/mL for each compound. […]

[3] = HPLC of 4-MU and metabolites in serum of mice fed 4-MU chow for two weeks; assay type: in vivo; conditions: mice fed 4-MU for two weeks
Source text: As a result of efficient glucuronidation of 4-MU in the liver and intestines by multiple UDP-glucuronosyltransferases (UGTs), the predominant form present systemically in mice on oral 4-MU chow is 4-MUG, as has been reported previously (Mulder G J, et al., Biochem Pharmacol. 1985; 34(8):1325-1329). For example, FIG. 1A illustrates molecular structures for 4-MU and its primary metabolites, 4-MUG and 4-MUS. […] N=3 animals per group. […] N=3 animals per group.

[4] = Water solubility (statement); assay type: physicochemical

| SMILES | fraction of a single intravenous dose eliminated as the 4-MUG metabolite in urine ([1]; in humans, single intravenous dose of 4-MU) | half-life ([1]; in humans) | share of 4-MU metabolism accounted for by glucuronidation into 4-MUG ([1]; in humans) | fraction of a given dose excreted unchanged in the urine ([1]; species not given) | systemic oral bioavailability ([1]; species not given) | time period of oral treatment required for leukocyte populations to take up 4-MU (blood leukocytes) | amount of 4-MUG in fat and muscle, 4-MU treatment compared to 4-MUG treatment [2] | median serum concentration of 4-MUG relative to parent compound 4-MU [3] | water solubility [4] |
| --- | --- | --- | --- | --- | --- | --- | --- | --- | --- |
| Cc1cc(=O)oc2cc(O)ccc12 [4-MU, 4-methylumbelliferone] | 93% | 28 min | over 90% | < 1% | < 3% | 1-2 weeks | significantly higher amount of 4-MUG | – | – |
| Cc1cc(=O)oc2cc(O[C@@H]3O[C@H](C(=O)O)[C@@H](O)[C@H](O)[C@H]3O)ccc12 [4-MUG, 4-methylumbelliferone-glucuronide] | – | – | – | – | – | – | – | about 150 fold | water-soluble |
